Columns and labels:
[1] = tested on: caspase 3 protein (Casp3) in U87 shCTRL and U87 shTau cells; assay: Caspase 3 expression by Western blot (apoptosis); assay type: cell-based, human; conditions: both cell types, 48 h treatment
Experimental: Cells were lysed with freshly made RIPA buffer derivative (4.3 mL of TBS 1×, 50 µL of SDS 10%, 10 µL of EDTA 0.5 M, 500 µL of Triton 10×, and 1% inhibitors of protease and phosphatase). After 30 min of lysis at 4 °C under agitation, lysates were centrifuged at 10,000× g for 10 min at 4 °C. Equivalent amounts of proteins from the supernatant fraction were subjected to Western blot analysis. Protein samples were loaded (40 μg/lane) and separated on 10 or 12% sodium dodecyl sulfate-polyacrylamide gels. The separated proteins were transferred onto nitrocellulose blotting membrane using the Bio-Rad transfer system. Before blocking, the blots were stained with Ponceau red to visualize transfer efficiency. […] The band intensity was quantified using the ImageJ v1.50g software. […] The band intensity was quantified using the NIH ImageJ v1.50g software. […]
death. (A) The apoptotic protein casp ase 3 (Casp 3) was analy zed by western blot of U87 shCTRL and U87 shTau cells: for each s ample t he ratio between the amount of Casp3 and GAPDH was calculated as relative fold of the reference value (with or without the compound); n = 3 lysates, ns: non-si gnificant. […]
blot used for quantification. (B) The activity of necrotic LDH protein was analy zed by fluorescence emission in U87 shCTRL (upper panel) and U87 shTau (lower panel) cells. […]

[2] = tested on: U87 shCTRL cells; assay: 2D random cell motility assay, U87 shCTRL; assay type: cell-based, human; conditions: 1.4 µM of compound 2, 1.6 µM of compound 9
Experimental: Cell motility was recorded by time-lapse videomicroscopy, as previously described. Briefly, cells were trypsinized and then seeded on Fibronectin pre-coated 24-well plates at 10^4 cells per well and allowed to adhere at 37 °C for 2 h in a 5% CO2 incubator. The cells were briefly rinsed in imaging medium (EMEM containing 10% FBS) to remove unattached cells before imaging. For conditions using compounds, agents were added to cells 15 min before launching the recording of the time-lapse series. Next, the plates were placed on an inverted wide-field Nikon microscope equipped with a 10× air objective (NA = 0.3) at 37 °C in 5% CO2. For all conditions, 61 frames of four fields were acquired using a CCD camera (Coolsnap HQ camera, Photometrics, Tucson, AZ, USA) driven by NIS elements AR 2.30 software (Nikon, Heidelberg, Germany). Migration tracks (n = 60–80 cells) were used to calculate total migration distance, distance to origin, velocity, and directional persistence of cell migration. Velocity was calculated as the total migration distance divided by 600 (600 min is total time of experiment). The distance to origin was determined as the net translocation between the initial and the final position. Directional persistence was calculated as the ratio of the distance to origin to that of the total distance migration.

Nc1nc2ccc3oc(C(=O)O)cc(=O)c3c2s1 [Compound 5]
expression of caspase 3 (Casp3) [1]: no change in the expression of Casp3

Nc1nc2ccc3oc(-c4cccc(Oc5ccccc5)c4)cc(=O)c3c2s1 [Compound 2, 2-amino-7-(3-phenoxyphenyl)-9H-chromeno [6,5-d]thiazol-9-one]
decrease in distance to origin [2]: 25%
decrease in velocity [2]: 15%
expression of caspase 3 (Casp3) [1]: no change in the expression of Casp3

Reference: publication PMC10606064, “2-Aminothiazole-Flavonoid Hybrid Derivatives Binding to Tau Protein and Responsible for Antitumor Activity in Glioblastoma” (International Journal of Molecular Sciences, 2023)
